{"source": "patent US6706740B2", "about": "“Fungicidal heterocyclic aromatic amides and their compositions, methods of use and preparation” (Dow AgroSciences LLC, priority 1999, dated 2004)", "key": {"[1]": {"system": "Septoria tritici—SEPTTR", "assay": "Leaf Blotch of Wheat, in vivo whole plant, 24 Hour Protectant", "conditions": "control of fungal infection vs untreated plants; for pest or weed control at 100 ppm: Zymoseptoria tritici, 24 h, read-out: SEPTTR in vivo 1 Day Protectant"}, "[2]": {"system": "Ustilago maydis (USTIMA)", "assay": "microbe, parasite or virus in culture", "assay_type": "cell-based", "conditions": "for inhibition at 25 ppm: Mycosarcoma maydis, read-out: USTIMA in vitro Growth Inhibition"}, "[3]": {"system": "Erysiphe graminis—ERYSGT", "assay": "Powdery Mildew of Wheat, in vivo whole plant, 24 Hour Protectant", "conditions": "control of fungal infection vs untreated plants; for pest or weed control at 100 ppm: Erysiphe, read-out: ERYSGT in vivo 1 Day Protectant"}, "[4]": {"system": "Leptosphaeria nodorum—LEPTNO", "assay": "Glume Blotch of Wheat, in vivo whole plant, 24 Hour Protectant", "conditions": "control of fungal infection vs untreated plants; for pest or weed control at 100 ppm: Leptosphaeria, read-out: LEPTNO in vivo 1 Day Protectant"}, "[5]": {"system": "Phytophthora infestans (PHYTIN)", "assay": "microbe, parasite or virus in culture", "assay_type": "cell-based", "conditions": "for inhibition at 25 ppm: Phytophthora infestans, read-out: PHYTIN in vitro Growth Inhibition"}, "[6]": {"system": "Puccinia recondita—PUCCRT", "assay": "Brown Rust of Wheat, in vivo whole plant, 24 Hour Protectant", "conditions": "control of fungal infection vs untreated plants; for pest or weed control at 100 ppm: Puccinia, read-out: PUCCRT in vivo 1 Day Protectant"}, "[7]": {"system": "Mycosphaerella graminicola (Septoria tritici—SEPTTR)", "assay": "In vitro fungal growth inhibition, Mycosphaerella graminicola (SEPTTR)", "assay_type": "cell-based", "conditions": "for inhibition at 25 ppm: Zymoseptoria tritici, read-out: SEPTTR in vitro Growth Inhibition"}, "[8]": {"system": "Stagonospora nodorum (Leptosphaeria nodorum—LEPTNO)", "assay": "In vitro fungal growth inhibition, Stagonospora nodorum (LEPTNO)", "assay_type": "cell-based", "conditions": "for inhibition at 25 ppm: Leptosphaeria, read-out: LEPTNO in vitro Growth Inhibition"}, "[9]": {"system": "Rhizoctonia solani (RHIZSO)", "assay": "microbe, parasite or virus in culture", "assay_type": "cell-based", "conditions": "for inhibition at 25 ppm: Rhizoctonia solani, read-out: RHIZSO in vitro Growth Inhibition"}, "[10]": {"system": "Magnaporthe grisea (Pyricularia oryzae—PYRIOR)", "assay": "microbe, parasite or virus in culture", "assay_type": "cell-based", "conditions": "for inhibition at 25 ppm: Pyricularia oryzae, read-out: PYRIOR in vitro Growth Inhibition"}, "[11]": {"system": "Phytophthora infestans—PHYTIN", "assay": "whole plant or invertebrate", "assay_type": "in vivo", "conditions": "for pest or weed control at 100 ppm: Phytophthora, in Solanum lycopersicum, 24 h, read-out: PHYTIN in vivo 1 Day Protectant"}, "[12]": {"conditions": "100 ppm spray, wheat, 24 hour protectant"}, "[13]": {"conditions": "wheat plants sprayed at 100 ppm, inoculated after 24 hours"}, "[14]": {"conditions": "100 ppm spray, 24 hour protectant, wheat"}}, "note": "Like-named read-outs stand apart in the source and are kept apart here."}
{"smiles": "COc1ccnc(C(=O)NC(COC(=O)CCc2ccccc2)C(=O)OC(C)COC(=O)C(C)C)c1O", "note": "(centres unmarked) [Compound 359]", "values": [{"measurement": "SEPTTR in vivo 1 Day Protectant", "setting": "[1]; [12]", "value": "+ +"}, {"measurement": "USTIMA in vitro Growth Inhibition", "setting": "[2]", "value": "− (key: +: at least 80% growth inhibition; −: less than 80% growth inhibition)"}, {"measurement": "ERYSGT in vivo 1 Day Protectant", "setting": "[3]; [12]", "value": "− (<25% control of fungal infection)"}, {"measurement": "LEPTNO in vivo 1 Day Protectant", "setting": "[4]; [12]", "value": "+ (25-74% control of fungal infection)"}, {"measurement": "PHYTIN in vitro Growth Inhibition", "setting": "[5]; 25 ppm in growth medium", "value": "− (less than 80% growth inhibition)"}, {"measurement": "PUCCRT in vivo 1 Day Protectant", "setting": "[6]; [12]", "value": "+ +"}, {"measurement": "SEPTTR in vitro Growth Inhibition", "setting": "[7]; 25 ppm in growth medium", "value": "− (less than 80% growth inhibition)"}, {"measurement": "LEPTNO in vitro Growth Inhibition", "setting": "[8]; 25 ppm in growth medium", "value": "− (less than 80% growth inhibition)"}, {"measurement": "RHIZSO in vitro Growth Inhibition", "setting": "[9]", "value": "− (key: +: at least 80% growth inhibition; −: less than 80% growth inhibition)"}, {"measurement": "PYRIOR in vitro Growth Inhibition", "setting": "[10]; 25 ppm in growth medium", "value": "− (less than 80% growth inhibition)"}, {"measurement": "PHYTIN in vivo 1 Day Protectant", "setting": "[11]; 100 ppm spray, tomato, 24 hour protectant, control of fungal infection vs untreated plants", "value": "− (<25% control of fungal infection)"}]}
{"smiles": "O=C(Nc1ccc(Oc2cccc(C(F)(F)F)c2)cc1)c1nscc1O", "note": "[Compound 551]", "values": [{"measurement": "pest or weed control at 100 ppm", "setting": "[1]; [13]", "value": "25 to 74", "unit": "%"}, {"measurement": "inhibition at 25 ppm", "setting": "[2]", "value": "< 80", "unit": "%"}, {"measurement": "pest or weed control at 100 ppm", "setting": "[3]; [13]", "value": "25 to 74", "unit": "%"}, {"measurement": "pest or weed control at 100 ppm", "setting": "[4]; [13]", "value": "25 to 74", "unit": "%"}, {"measurement": "inhibition at 25 ppm", "setting": "[5]", "value": "< 80", "unit": "%"}, {"measurement": "pest or weed control at 100 ppm", "setting": "[6]; [13]", "value": "< 25", "unit": "%"}, {"measurement": "inhibition at 25 ppm", "setting": "[7]; 25 ppm in the growth medium", "value": "< 80", "unit": "%"}, {"measurement": "inhibition at 25 ppm", "setting": "[8]; 25 ppm in the growth medium", "value": "< 80", "unit": "%"}, {"measurement": "inhibition at 25 ppm", "setting": "[9]", "value": "< 80", "unit": "%"}, {"measurement": "inhibition at 25 ppm", "setting": "[10]", "value": "< 80", "unit": "%"}, {"measurement": "pest or weed control at 100 ppm", "setting": "[11]", "value": "< 25", "unit": "%"}]}
{"smiles": "CC1(C)CC(NC(=O)c2ncccc2O)CC(C)(C)C1=O", "note": "[Compound 205]", "values": [{"measurement": "pest or weed control at 100 ppm", "setting": "[1]; [14]", "value": "< 25", "unit": "%"}, {"measurement": "inhibition at 25 ppm", "setting": "[2]", "value": "< 80", "unit": "%"}, {"measurement": "pest or weed control at 100 ppm", "setting": "[3]; [14]", "value": "< 25", "unit": "%"}, {"measurement": "pest or weed control at 100 ppm", "setting": "[4]; [14]", "value": "< 25", "unit": "%"}, {"measurement": "inhibition at 25 ppm", "setting": "[5]", "value": "< 80", "unit": "%"}, {"measurement": "pest or weed control at 100 ppm", "setting": "[6]; [14]", "value": "< 25", "unit": "%"}, {"measurement": "inhibition at 25 ppm", "setting": "[7]; 25 ppm in growth medium", "value": "< 80", "unit": "%"}, {"measurement": "inhibition at 25 ppm", "setting": "[8]; 25 ppm in growth medium", "value": "< 80", "unit": "%"}, {"measurement": "inhibition at 25 ppm", "setting": "[9]", "value": "< 80", "unit": "%"}, {"measurement": "inhibition at 25 ppm", "setting": "[10]", "value": "< 80", "unit": "%"}, {"measurement": "pest or weed control at 100 ppm", "setting": "[11]", "value": "< 25", "unit": "%"}]}
{"smiles": "O=C(Nc1cccc(C(F)(F)F)c1)c1ncccc1O", "note": "[Compound 214]", "values": [{"measurement": "pest or weed control at 100 ppm", "setting": "[1]; [14]", "value": "< 25", "unit": "%"}, {"measurement": "inhibition at 25 ppm", "setting": "[2]", "value": "< 80", "unit": "%"}, {"measurement": "pest or weed control at 100 ppm", "setting": "[3]; [14]", "value": "< 25", "unit": "%"}, {"measurement": "pest or weed control at 100 ppm", "setting": "[4]; [14]", "value": "< 25", "unit": "%"}, {"measurement": "inhibition at 25 ppm", "setting": "[5]", "value": "< 80", "unit": "%"}, {"measurement": "pest or weed control at 100 ppm", "setting": "[6]; [14]", "value": "< 25", "unit": "%"}, {"measurement": "inhibition at 25 ppm", "setting": "[7]; 25 ppm in growth medium", "value": "< 80", "unit": "%"}, {"measurement": "inhibition at 25 ppm", "setting": "[8]; 25 ppm in growth medium", "value": "< 80", "unit": "%"}, {"measurement": "inhibition at 25 ppm", "setting": "[9]", "value": "< 80", "unit": "%"}, {"measurement": "inhibition at 25 ppm", "setting": "[10]", "value": "< 80", "unit": "%"}, {"measurement": "pest or weed control at 100 ppm", "setting": "[11]", "value": "< 25", "unit": "%"}]}
{"smiles": "COC(=O)C(COC(=O)C(C)Cc1ccccc1)NC(=O)c1nccc(OC)c1O", "note": "(centres unmarked) [Compound 345]", "values": [{"measurement": "pest or weed control at 100 ppm", "setting": "[1]; [12]", "value": "< 25", "unit": "%"}, {"measurement": "inhibition at 25 ppm", "setting": "[2]", "value": "< 80", "unit": "%"}, {"measurement": "pest or weed control at 100 ppm", "setting": "[3]; [12]", "value": "< 25", "unit": "%"}, {"measurement": "pest or weed control at 100 ppm", "setting": "[4]; [12]", "value": "< 25", "unit": "%"}, {"measurement": "inhibition at 25 ppm", "setting": "[5]", "value": "< 80", "unit": "%"}, {"measurement": "pest or weed control at 100 ppm", "setting": "[6]; [12]", "value": "25 to 74", "unit": "%"}, {"measurement": "inhibition at 25 ppm", "setting": "[7]; 25 ppm in growth medium", "value": "< 80", "unit": "%"}, {"measurement": "inhibition at 25 ppm", "setting": "[8]; 25 ppm in growth medium", "value": "< 80", "unit": "%"}, {"measurement": "inhibition at 25 ppm", "setting": "[9]", "value": "< 80", "unit": "%"}, {"measurement": "inhibition at 25 ppm", "setting": "[10]", "value": "< 80", "unit": "%"}, {"measurement": "pest or weed control at 100 ppm", "setting": "[11]", "value": "< 25", "unit": "%"}]}
{"smiles": "COc1ccnc(C(=O)N[C@@H]2C[C@@H](C(F)(F)F)C[C@@H](C(F)(F)F)C2)c1OC(C)=O", "note": "[Compound 577]", "values": [{"measurement": "pest or weed control at 100 ppm", "setting": "[1]; [13]", "value": "25 to 74", "unit": "%"}, {"measurement": "inhibition at 25 ppm", "setting": "[2]", "value": "< 80", "unit": "%"}, {"measurement": "pest or weed control at 100 ppm", "setting": "[3]; [13]", "value": "< 25", "unit": "%"}, {"measurement": "pest or weed control at 100 ppm", "setting": "[4]; [13]", "value": "25 to 74", "unit": "%"}, {"measurement": "inhibition at 25 ppm", "setting": "[5]", "value": "< 80", "unit": "%"}, {"measurement": "pest or weed control at 100 ppm", "setting": "[6]; [13]", "value": "< 25", "unit": "%"}, {"measurement": "inhibition at 25 ppm", "setting": "[7]; 25 ppm in the growth medium", "value": "< 80", "unit": "%"}, {"measurement": "inhibition at 25 ppm", "setting": "[8]; 25 ppm in the growth medium", "value": "< 80", "unit": "%"}, {"measurement": "inhibition at 25 ppm", "setting": "[9]", "value": "< 80", "unit": "%"}, {"measurement": "inhibition at 25 ppm", "setting": "[10]", "value": "< 80", "unit": "%"}, {"measurement": "pest or weed control at 100 ppm", "setting": "[11]", "value": "< 25", "unit": "%"}]}
{"smiles": "COc1ccnc(C(=O)Nc2ccccc2Oc2cccc(Cl)c2)c1O", "note": "[Compound 437]", "values": [{"measurement": "pest or weed control at 100 ppm", "setting": "[1]; [12]", "value": "< 25", "unit": "%"}, {"measurement": "inhibition at 25 ppm", "setting": "[2]", "value": "< 80", "unit": "%"}, {"measurement": "pest or weed control at 100 ppm", "setting": "[3]; [12]", "value": "< 25", "unit": "%"}, {"measurement": "pest or weed control at 100 ppm", "setting": "[4]; [12]", "value": "< 25", "unit": "%"}, {"measurement": "inhibition at 25 ppm", "setting": "[5]", "value": "< 80", "unit": "%"}, {"measurement": "pest or weed control at 100 ppm", "setting": "[6]; [12]", "value": "< 25", "unit": "%"}, {"measurement": "inhibition at 25 ppm", "setting": "[7]; 25 ppm in growth medium", "value": "> 80", "unit": "%"}, {"measurement": "inhibition at 25 ppm", "setting": "[8]; 25 ppm in growth medium", "value": "< 80", "unit": "%"}, {"measurement": "inhibition at 25 ppm", "setting": "[9]", "value": "< 80", "unit": "%"}, {"measurement": "inhibition at 25 ppm", "setting": "[10]", "value": "< 80", "unit": "%"}, {"measurement": "pest or weed control at 100 ppm", "setting": "[11]", "value": "25 to 74", "unit": "%"}]}
